Experimental findings from patent US9185910B2, “Amide compound” (Sumitomo Chemical Company, Limited, priority 2012, dated 2015) are described below.

The test system of assay [1] is Haemaphysalis longicornis. In words: Test Example 11: coated screw tube contact test, Haemaphysalis longicornis ticks. In kind it is in vivo. To be noted: 2 mg compound coated on inner wall of screw tube, non-blood-sucking nymphal ticks, after 2 days. The method, then: 2 mg of each of Compounds of Present Invention 7, 20, 25, 28, 48, 55, 65 and 110 was weighed in a screw tube (Maruemu No. 5; 27×55 mm), and 0.2 mL of acetone was added thereto and sealed with a cap to dissolve the compound. The screw tube was rotated and inverted to uniformity coat the drug solution onto the whole inner wall of the tube. After removing the cap, the solution was air-dried for about 2 hours, then non-blood-sucking nymphal ticks, Haemaphysalis longicornis (5 ticks/group) were released, and the tube was sealed with the cap. After 2 days, the number of dead ticks was examined, and the death rate was calculated according to the following equation: Death rate (%)=100×(Number of dead ticks/Number of tested ticks).

A further assay concerns Musca domestica. Kind of assay: Test Example 8: filter paper with sucrose bait, Musca domestica. In kind it is in vivo. To be noted: 500 ppm, 0.7 ml on filter paper, female imagoes, after 24 hours. The method, then: The formulations of Compounds of Present Invention 31, 41, 55, 62, 64 to 65, 67 to 70, 73 to 75, 88, 119, 124 and 131 as obtained in Formulation Example 5 were diluted with water, so as to have a concentration of the active ingredient of 500 ppm, to prepare a test drug solution.
A filter paper having a diameter of 5.5 cm was spread on the bottom of a polyethylene cup having the same diameter and 0.7 ml of the test drug solution was added dropwise onto the filter paper, and 30 mg of sucrose was uniformly placed as bait. Into the polyethylene cup, 10 female imagoes of Musca domestica were released, and the cup was sealed with a lid. After 24 hours, the life and death of Musca domestica was examined, and the death rate was calculated. Death rate (%)=(Number of dead insects/Number of tested insects)×100

Turning to `CCSc1cccnc1C(=O)N(C)c1ccc(C(F)(F)C(F)(F)F)c(Cl)n1` [compound 110], the “Death rate (%)” value in assay [1] is 100%.
Take `CCSc1cccnc1C(=O)Nc1ccc(C(F)(F)F)nc1` [compound 20]: in assay [1], the “Death rate (%)” value is 100%.
With `CCSc1cc(Cl)cnc1C(=O)N(C)c1ccc(C(F)(F)F)cc1` [compound 131], in the assay with Musca domestica, the “Death rate (%)” value stood at 100%.
In the case of `CCSc1cccnc1C(=O)N(C)c1ccc(I)cn1` [compound 70], the “Death rate (%)” value with Musca domestica stood at 100%.
For `CCS(=O)(=O)c1cc(NC(=O)OC)cnc1C(=O)N(C)c1ccc(SC(F)(F)F)cc1` [compound 119], in the assay on Musca domestica, the “Death rate (%)” value is reported as 100%.
